Experimental findings from a melting point compilation (Tetko et al.; mined from patent text by program, amines drawn as free bases though some values may be those of a salt) are described below.

In general, melting point refers to the temperature of the solid-liquid transition.

Bounds are passed on as bounds.

Take `COc1ccccc1C(Cc1ccccc1)(Cn1cncn1)C(=O)O` (stereo not given): the melting point lay within 250 to 252 °C. In turn, `COc1ccc(C(=O)Nc2ccc(C)c(C)c2)cc1NC(=S)Nc1cccc(C)c1` yielded a melting point of 155 to 160 °C. For the compound `CCCCCCC(C)(C)c1cc(O)c2c(c1)oc(=O)c1ccc(OC)cc12`, the melting point was 149 to 151 °C. As to `Cc1ccccc1-c1c(C(=O)O)c(=O)n(C)c2cc3c(cc12)CCC3`, the melting point was in the range of 231 to 232 °C. For `CCOC(=Cc1ccc(-c2cccc(N(C)C(=O)NC3CCCCC3)c2)cc1)C(=O)O`, the melting point stood at 85 °C. In the case of `COC1(c2ccc(CCc3cc(F)cc(F)c3NC(=O)C(C)(C)C)cc2)CCOCC1`, the melting point was 147 to 148 °C.

`CSCC(C)(C)NC(=O)c1c(NC(=O)c2cc(C(F)(F)F)nn2-c2ncccc2Cl)c(Cl)cc2cn[nH]c12`: the melting point fell in the range of 100 to 105 °C. Regarding `CC(=O)c1cc(N2CCOCC2)ccc1NC(=O)c1ccccc1OCc1ccccc1`, the melting point lay in the range of 144 to 146 °C. `C=CCn1c(=O)c(C(=O)OCC)c(O)c2cnc(-c3ccccc3)nc21` showed a melting point of 174 to 175 °C. In the case of `COc1ccccc1NC(=O)Nc1ccc(CC(=O)O)cc1C`, the melting point fell in the range of 260 to 264 °C. Regarding `CC(=O)Nc1ccc2c(O)c(C(=O)NCc3ccc(Cl)cc3)cnc2c1`, the melting point was more than 250 °C.

`Cc1c(CN2CCc3c(c4ccccc4n3C)C2=O)ncn1S(=O)(=O)N(C)C` had a melting point of 194 to 196 °C.

For the compound `CCc1nc(NC(=N)N)sc1-c1cccc([N+](=O)[O-])c1`, the melting point was in the range of 149 to 151 °C.

For the compound `N#Cc1ccc(OCCCCl)cc1`, the melting point was 40 to 44 °C. Compound `C=Cc1ccc(CSCCNC(=S)CCC(=O)O)cc1` came in with a melting point of 97 to 99 °C. `CN1C(=O)C(Cc2ccccc2)Oc2ccc(N)cc21` (stereo not given) returned a melting point of 82 to 85 °C. Then `CCCCOc1ccc(-c2nc3n(c2-c2ccc(OCCCC)cc2)CCS3)cc1`, with 149 to 151 °C. Consider `Cc1oc2c(-n3c(=O)cc(C(F)(F)F)n(C)c3=O)ccc(Cl)c2c1[N+](=O)[O-]`, for which the melting point fell in the range of 174 to 175 °C. Compound `CC(C)C(=O)Nc1ccn(C)c1` had a melting point of 125 to 126 °C. The compound `COc1cc2c(cc1OC)C(Cc1cc(I)c(I)c(I)c1)N(C(=O)C(F)(F)F)CC2` (stereo not given) returned a melting point of 215 to 216 °C.

`O=C1Nc2ccccc2N(C(=O)CN2CCCCC2CN2CCCC2)c2cscc21` (stereo not given) showed a melting point of 205 to 207 °C.

On to `CCN(CC)CCNC(=O)c1cc(I)cc2c(=O)cc[nH]c12`, for which the melting point lay in the range of 141 to 143 °C. In turn, `C#CCc1ccc2onc3c2c1OCC=N3` had a melting point of 104 to 106 °C.

`CS(=O)(=O)N1CCCn2c(nc3c(N)nc4cccnc4c32)C1`: the melting point is more than 250 °C.

`CCOC(=O)c1cn(CCCO)c(=O)c2cc(Cl)ccc12` registered a melting point of 193 °C. As to `N#Cc1ccc(NC(=O)Nc2cccc(C#N)c2)cc1`, the melting point was 183 to 185 °C.

Compound `Nc1ccccc1Nc1ccc(Oc2ccc(C(c3ccc(Oc4ccc(Nc5ccccc5N)cc4)cc3)(C(F)(F)F)C(F)(F)F)cc2)cc1` returned a melting point of 62.4 to 64.1 °C. In turn, `NNC(=O)c1cc(Cl)c(O)cc1O` gave a melting point of 260 °C. `CCCCCC(OC(C)=O)c1ccccc1COc1cccc2ccc(=O)[nH]c12` (stereo not given): the melting point is 92 to 95 °C. `CN1CCN(C(=O)CN2C(=O)C(NC(=O)OCc3ccccc3)N=C(c3ccccc3)c3ccccc32)CC1` (stereo not given) had a melting point of 200 to 202 °C. `CC(C)(C)c1ccc(OP2OCC3(CO2)COP(Oc2ccc(C(C)(C)C)cc2C(C)(C)C)OC3)c(C(C)(C)C)c1` (stereo not given) registered a melting point of 174 to 177 °C.

`NS(=O)(=O)c1ccc(NN=Cc2ccc(Cl)cc2Cl)cc1`: the melting point was 219 to 221 °C.

Turning to `CC(C)(C)c1ccc2c(c1)CNC2=O`, the melting point fell in the range of 132 to 134 °C. In turn, `CCN(CC)C(=O)c1ccc(C)c(-c2nc(S(C)(=O)=O)nc3c2CNC(=O)N3c2c(F)cccc2F)c1` registered a melting point of 132 to 135 °C.

In the case of `C=CCNCCC(=O)O`, the melting point fell in the range of 194 to 195 °C. Then `Cc1csc2c(=O)n(CCC(C(=O)NO)N(C)S(=O)(=O)c3ccc(Oc4ccccc4)cc3)c(=O)[nH]c12` (stereo not given), with 170 to 171 °C; and `O=c1cnc(-c2cc(-c3ccsc3)cc(-c3ccsc3)c2)nn1CC(F)(F)F`, with 189 to 191 °C. Compound `COP(=O)(Nc1ccc([N+](=O)[O-])c(NCCc2ccccc2)c1)OC` displayed a melting point of 128 °C.

`CCCCNC(=O)[C@H](C)C[C@H](O)[C@H](CC1CCCCC1)NC(=O)[C@H](Cc1cscn1)NC(=O)[C@@H](CC(=O)N1CCOCC1)Cc1ccccc1` yielded a melting point of 162 to 163 °C. `CC(=O)O[C@@H]1OCC[C@@H]1NC(=O)[C@H](Cc1ccccc1)NC(=O)OCc1ccccc1`: the melting point lay in the range of 175 to 176 °C. For `CN1CS(=O)c2cccc(Cl)c21` (stereo not given), the melting point was 130 to 132 °C. `COc1ccc(C(=O)O)c(Sc2ccc(SC)cc2)c1` had a melting point of 202 to 203 °C. In turn, `CCc1c(-c2ccc(OCc3ccccc3)cc2)c2c(C(=O)N(C)C)cc3cccc1n32` showed a melting point of 92 to 95 °C. The compound `Cc1c(-c2ccccc2)n(Cc2ccccc2)c2ccc(-c3ccc(OCC(=O)O)cc3)cc12` had a melting point of 174 to 175 °C. In turn, `CCOCc1nc2c(N)nc3cc(-c4cncc(OC)c4)ccc3c2n1CC(C)(C)OCCS(C)(=O)=O` yielded a melting point of 186 to 188 °C.

`CN(C)c1nc(NCc2ccc(NC(=O)C3CCN(Cc4ccccc4)CC3)cc2)c2ccc(I)cc2n1` registered a melting point of 194 °C.

Regarding `Nc1cccc(-n2c(=O)c3c(CCc4ccncc4)n[nH]c3c3cccnc32)c1`, the melting point lay in the range of 261 to 263 °C.

Consider `OOC12C=CC=CC=CC=CC=CC1=CC=CO2` (stereo not given), for which the melting point was in the range of 104 to 106 °C. In the case of `O=C(Nc1ccc(OC(F)(F)F)cc1)NC1CCN(C(=O)CN2CCN(Cc3ccccc3)CC2)CC1`, the melting point was 178 to 183 °C. Then `CCOC(=O)N1CCN(c2ccc(N3CC(CNC(C)=O)OC3=O)cc2F)CC1` (stereo not given), with 224 to 226 °C. Then `Cc1sc(Cc2ccccc2)c(-c2ccc(-c3ccc(OS(=O)(=O)c4ccc(C(=O)O)c(O)c4)cc3)cc2)c1C`, with 173 to 175 °C. Then `CN(C)Cc1cc2cc(C(=O)NN)ccc2o1`, with 82 to 92 °C; and `CC(C)(C)c1ncc(C(=C(Cl)Cl)C(F)(F)F)cn1`, with 58 °C. `CCCCC1(CCCC)CCc2c(OCc3ccc4ccccc4n3)ccc(F)c2C1O` (stereo not given) came in with a melting point of 128 to 129 °C. Under `O=C=Nc1c(Br)cccc1Br` stands 68 to 70 °C; under `C1=C(c2c[nH]c3ccccc23)CCN(CC2COc3ccc4ncccc4c3O2)C1` (stereo not given), 217 °C.

`CCCCCCCCCCN(O)C(=O)N(C)C` showed a melting point of 44 to 45 °C.

As to `O=[N+]([O-])CS(=O)(=O)c1ccc2c(c1)OCO2`, the melting point is 131 to 132 °C. In the case of `O=c1[nH]nc(Cl)cc1Nc1ccncn1`, the melting point was more than 300 °C. On to `CN(C)c1ncc(-c2cccc(Nc3ccc(-c4ccoc4)cc3[N+](=O)[O-])c2)cn1`, for which the melting point lay in the range of 181 to 182 °C. `CC1SC(=O)NN=C1c1ccc2c(c1)C(=NNC1CCCCC1)C(=O)N2` (stereo not given) registered a melting point of 217 °C. Then `CCCOc1ccc(-c2ccc3c(c2)C=C(C(=O)O)CCS3(=O)=O)cc1`, with 270 to 273 °C; and `COc1ccc(-n2cnc3ccc(-c4nnc(SCc5cccc(F)c5)o4)cc32)cc1`, with 155 to 156 °C. Then `CCCCn1c(-c2ccc(OC)cc2)nc2c3ccccc3ccc21`, with 99.5 to 100 °C; and `CCOCC(=O)C1CCC2C3CCC4CC(O)CCC4(C)C3C(=O)CC12C` (stereo not given), with 129 to 131 °C; and `CCSc1cc(C)nc(SCC)c1NC(=O)CCCSc1nc2ccccc2[nH]1`, with 160 to 161 °C.

`NS(=O)(=O)c1ccc(-c2cc(F)c(F)cc2-c2ccc(F)cc2)cc1` registered a melting point of 190 to 192 °C. As to `O=C(Cc1ccccc1Br)NCC1OC(n2cc(Br)c(=O)[nH]c2=O)CC1O` (stereo not given), the melting point lay in the range of 222 to 223 °C. Under `NC1=NN(c2nc3ccccc3s2)C(c2ccc(Cl)cc2)C1` (stereo not given) stands 273 to 275 °C; under `Nc1cnc(-c2ccc(F)cc2)n(CC(=O)N[C@@H](Cc2ccccc2)C(=O)C(F)(F)C(=O)NCc2ccccc2)c1=O`, 90 to 91 °C. Then `COC(=O)CCCCC(=O)c1cccc(F)c1O`, with 59 to 60 °C. On to `COc1cc2ccc3c(OC)cccc3c2c(OC)c1OC`, for which the melting point is 80 to 82 °C. In the case of `CSC1C2=C(CCCC2)C(=O)N1c1ccc(Cl)cc1F` (stereo not given), the melting point lay in the range of 97 to 98 °C.

On to `CCCCCCCCC#CCCCCCCCC(=O)Nc1nc(CC(=O)O)cs1`, for which the melting point was 95.5 to 96.5 °C. In the case of `O=c1[nH]c2scnc2c2c(O)cccc12`, the melting point is more than 250 °C. For `C(=Cc1nc(CNc2ccc(CCCCn3ccnn3)cc2)co1)c1ccc2c(c1)OCO2`, the melting point was 130 to 131 °C. As to `COc1ccc(S(=O)(=O)[C@H](CCCCc2ccccc2)[C@H](C(=O)O)C(C)C)cc1OC` (relative stereo), the melting point was in the range of 173 to 174 °C.

As for `CCNc1nc(Nc2ccccc2)ncc1C=O`, the melting point is 155 to 157 °C. Under `COc1cc2c(c(C(N)=O)c1OC)CCNCC2c1ccccc1` (stereo not given) stands 178 to 180 °C; under `CS(=O)(=O)N(c1ccc(C#Cc2cnn3c(C(F)(F)F)cc(-c4ccc(C(F)(F)F)cc4)nc23)cn1)S(C)(=O)=O`, 250 to 251 °C.

For `CS(=O)(=O)CC(=O)c1[nH]c2cc(Br)c(Cl)cc2c1-c1ccccc1`, the melting point lay within 224 to 225 °C. The compound `O=c1c2cnccc2n(-c2cccc(Cl)c2)c2ncccc12` registered a melting point of 222 to 224 °C.

Turning to `CCC1(C2CCCC2)Cc2cc(OCCCC(=O)O)c(Cl)c(Cl)c2C1=O` (stereo not given), the melting point was in the range of 189 to 193 °C. `COc1ccc(-c2ccc3c(C(N)=O)nn(-c4ccc(S(N)(=O)=O)cc4)c3c2)cc1` showed a melting point of 258 to 259 °C. `C=CCC(CC=C)C(=O)O[C@H]1C[C@H](O)C=C2C=C[C@H](C)[C@H](CC[C@@H]3C[C@@H](O)CC(=O)O3)[C@H]21`: the melting point lay in the range of 159 to 160 °C.
